Source: ChEMBL document CHEMBL3232962, “Identification and optimization of novel Hsp90 inhibitors with tetrahydropyrido[4,3-d]pyrimidines core through shape-based screening” (Eur J Med Chem, 2014)

Columns and labels:
[1] = molecular target: T1, Heat shock protein HSP 90-beta (Homo sapiens, UniProt P08238); assay: Inhibition of full-length HSP90 (unknown origin) expressed in Escherichia coli assessed as inhibition of ATPase activity after 3 hrs by spectrophotometric analysis
cells = settings: Homo sapiens, SK-BR-3, 48 h
Description: Antiproliferative activity against human SKBR3 cells after 48 hrs by MTT assay

[2] = molecular target: T1, Heat shock protein HSP 90-beta; assay: Displacement of FITC-geldanamycin from HSP90 (unknown origin) after 30 mins by fluorescence polarization assay
[3] = Antiproliferative activity against human A231 cells after 48 hrs by MTT assay; type: functional, cell-based; settings: A231, 48 h
HCT-116 = assay: cells; settings: Homo sapiens, HCT-116, 48 h
MCF7 = assay: cells; settings: Homo sapiens, MCF7, 48 h

T1 sequence (P08238 whole entry): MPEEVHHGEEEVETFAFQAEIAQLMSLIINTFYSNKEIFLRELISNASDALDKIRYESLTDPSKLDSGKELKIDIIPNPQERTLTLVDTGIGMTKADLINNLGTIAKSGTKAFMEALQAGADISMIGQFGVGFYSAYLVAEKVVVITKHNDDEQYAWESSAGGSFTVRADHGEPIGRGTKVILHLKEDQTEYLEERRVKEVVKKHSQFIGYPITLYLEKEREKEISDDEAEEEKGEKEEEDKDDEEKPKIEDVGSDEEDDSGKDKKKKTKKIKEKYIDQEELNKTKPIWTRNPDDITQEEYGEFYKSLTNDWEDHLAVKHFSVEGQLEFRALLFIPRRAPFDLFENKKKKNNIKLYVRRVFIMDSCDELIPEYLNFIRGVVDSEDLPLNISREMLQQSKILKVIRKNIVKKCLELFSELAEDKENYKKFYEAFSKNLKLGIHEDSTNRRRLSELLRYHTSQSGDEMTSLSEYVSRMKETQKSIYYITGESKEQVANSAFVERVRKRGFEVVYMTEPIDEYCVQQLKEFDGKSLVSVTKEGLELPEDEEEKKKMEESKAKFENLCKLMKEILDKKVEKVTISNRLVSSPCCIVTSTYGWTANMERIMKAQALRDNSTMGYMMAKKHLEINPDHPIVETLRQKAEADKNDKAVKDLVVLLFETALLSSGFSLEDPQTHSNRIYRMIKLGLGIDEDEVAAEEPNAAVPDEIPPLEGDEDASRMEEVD

Compound	IC50 [1] [µM]	IC50 (cells) [µM]	IC50 [2] [µM]	IC50 [3] [µM]	IC50 (HCT-116) [µM]	IC50 (MCF7) [µM]
Nc1ncc2c(n1)CCN(C(=O)c1cc(Cl)c(O)cc1O)C2	0.51	2.3	0.31	5.22	1.21	4.41
O=C(c1ccc(F)cc1)N1CCc2nc(N3CCN(c4ncccn4)CC3)ncc2C1	27.2	24.5	> 100	54.4	67.9	46.2
O=C(c1ccc(O)cc1O)N1CCc2nc(N3CCN(c4ncccn4)CC3)ncc2C1	3.23	12.2	10.2	21.3	23.1	17.5
O=C(c1cc(Cl)c(O)cc1O)N1CCc2nc(N3CCN(c4ncccn4)CC3)ncc2C1	0.93	5.17	1.67	6.65	2.74	10.2
O=C(c1ccc(Cl)cc1)N1CCc2nc(N3CCN(c4ncccn4)CC3)ncc2C1	24.5	11.2	> 100	24.6	21.7	42.2
CO[C@H]1/C=C\C=C(/C)C(=O)NC2=CC(=O)C(NCCN(C)C)=C(C[C@@H](C)C[C@H](OC)[C@H](O)[C@@H](C)/C=C(\C)[C@@H]1OC(N)=O)C2=O [ALVESPIMYCIN]	–	3.11	–	0.17	1.21	0.8
COc1ccc(C(=O)N2CCc3nc(N4CCN(c5ncccn5)CC4)ncc3C2)c(OC)c1	7.88	16	30.5	37.6	11.5	20.2
Cc1ncc2c(n1)CCN(C(=O)c1cc(Cl)c(O)cc1O)C2	0.42	4.32	0.1	3.76	2.82	1.91
CC(C)c1cc(C(=O)N2Cc3ccc(CN4CCN(C)CC4)cc3C2)c(O)cc1O [ONALESPIB]	0.35	0.14	0.03	1.01	0.08	0.28
COc1ccc(OC)c(CN2CCc3nc(N4CCN(c5ncccn5)CC4)ncc3C2)c1	35.2	10.7	45.4	27.5	43.2	53.2
COc1ccc(OC)c(C(=O)N2CCc3nc(N4CCN(c5ncccn5)CC4)ncc3C2)c1	16.4	23.5	40.4	51.3	34.6	43.3

Second part, led by results:

IC50 [1] [µM]	Compound	IC50 (cells) [µM]	IC50 [2] [µM]	IC50 [3] [µM]	IC50 (HCT-116) [µM]	IC50 (MCF7) [µM]
> 100	c1cc2c(cc1CN1CCc3nc(Nc4ccc5c(c4)OCCO5)ncc3C1)OCCO2	–	–	–	–	–
59.3	CCCN1CCN(c2ncc3c(n2)CCN(Cc2cc(Br)cs2)C3)CC1	–	–	–	–	–
63.2	CN1CCN(c2ncc3c(n2)CCN(Cc2ccc(Br)s2)C3)CC1	–	–	–	–	–
74.7	CCN1CCN(c2ncc3c(n2)CCN(Cc2ccc(Br)s2)C3)CC1	–	–	–	–	–
50.9	COc1cc(OC)c(OC)cc1CN1CCc2nc(N3CCOCC3)ncc2C1	–	–	–	–	–
88	CC1CCN(c2ncc3c(n2)CCN(Cc2ccc(Br)s2)C3)CC1	–	–	–	–	–
47.9	Clc1ccc(CN2CCc3nc(N4CCN(c5ncccn5)CC4)ncc3C2)cc1	–	> 100	–	–	–
40.2	Fc1ccc(CN2CCc3nc(N4CCN(c5ncccn5)CC4)ncc3C2)cc1	–	> 100	–	–	–
55.1	COc1cc(CN2CCc3nc(N4CCOCC4)ncc3C2)cc(OC)c1OC	–	–	–	–	–
46.1	CN(C)c1ccc(CN2CCc3nc(N4CCN(c5ncccn5)CC4)ncc3C2)cc1	–	> 100	–	–	–
